US20180353462A1, “[…] AGENTS […] FLAVONOID DERIVATIVES TARGETING KINASES, SIRTUINS AND ONCOGENIC AGENTS FOR THE TREATMENT OF CANCERS” (priority 2015, published 2018)

molecular target: T1, FLT3 (Homo sapiens, UniProt P36888); assay type: binding; details: Table 1 kinase panel; read-out: IC50 (nM) FLT3
T1 construct: made in house
T1 sequence (P36888 27-993): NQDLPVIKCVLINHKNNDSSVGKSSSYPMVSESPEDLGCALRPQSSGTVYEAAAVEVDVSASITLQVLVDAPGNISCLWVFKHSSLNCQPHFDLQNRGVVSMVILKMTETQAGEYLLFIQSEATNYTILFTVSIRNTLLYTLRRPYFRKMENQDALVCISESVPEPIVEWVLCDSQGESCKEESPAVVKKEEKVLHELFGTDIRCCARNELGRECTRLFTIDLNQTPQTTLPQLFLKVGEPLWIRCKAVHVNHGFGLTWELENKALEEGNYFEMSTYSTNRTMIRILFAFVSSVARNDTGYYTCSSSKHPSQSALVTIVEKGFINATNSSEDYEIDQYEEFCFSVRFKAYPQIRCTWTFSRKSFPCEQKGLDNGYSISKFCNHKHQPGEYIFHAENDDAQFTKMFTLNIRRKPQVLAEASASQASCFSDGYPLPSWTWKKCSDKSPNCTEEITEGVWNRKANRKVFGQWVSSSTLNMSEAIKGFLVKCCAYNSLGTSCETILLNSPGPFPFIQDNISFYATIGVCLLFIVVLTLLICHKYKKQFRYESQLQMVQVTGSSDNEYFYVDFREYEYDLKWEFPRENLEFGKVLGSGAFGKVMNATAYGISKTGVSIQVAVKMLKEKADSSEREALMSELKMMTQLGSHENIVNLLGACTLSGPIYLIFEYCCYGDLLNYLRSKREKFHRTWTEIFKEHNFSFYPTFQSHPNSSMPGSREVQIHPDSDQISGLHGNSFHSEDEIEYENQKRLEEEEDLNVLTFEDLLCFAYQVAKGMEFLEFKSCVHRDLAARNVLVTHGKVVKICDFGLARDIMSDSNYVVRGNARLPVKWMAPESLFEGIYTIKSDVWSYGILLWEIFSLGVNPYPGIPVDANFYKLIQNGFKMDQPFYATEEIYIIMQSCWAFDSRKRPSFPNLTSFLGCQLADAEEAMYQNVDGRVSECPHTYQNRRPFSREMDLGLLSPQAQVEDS
Experimental: (§1) Cannabis flavonoids and their analogs were subjected to kinase inhibition assay. The compounds were first screened at a single concentration of 10 μM in the primary assay. […] To determine the kd or IC50 values, competition binding assays were established, authenticated and executed as described previously. […] See also, Karaman et al., “A Quantitative Analysis Of Kinase Inhibitor Selectivity”, Nat. Biotechnol. […] For most assays, kinases were fused to T7 phage strains (Fabian, supra) and for the other assays, kinases were produced in HEK-293 cells after which they were tagged with DNA for quantitative PCR detection. In general, full-length constructs were used for small, single domain kinases, and catalytic domain constructs for large multi-domain kinases. […] The liganded beads were blocked with excess biotin and washed with blocking buffer (SeaBlock (Pierce), 1% BSA, 0.05% Tween 20, 1 mM DTT) to remove unbound ligand and to reduce non-specific phage binding. […] All reactions were performed in polypropylene 384-well plates in a final volume of 0.04 ml. […] The kinase concentration in the eluates was measured by quantitative PCR. An illustration of the kinase interaction process is presented below. Kd/IC50 values were determined using a standard dose response curve using the hill equation. Curves were fitted using a non-linear least square fit with the Levenberg-Marquardt algorithm.

SMILES | IC50
COc1cc(-c2cc(=O)c3c(O)cc(O)c(C/C=C(\C)CCC=C(C)C)c3o2)ccc1O [FBL-03C] | > 20000 nM
COc1cc(-c2cc(=O)c3c(O)c(CC=C(C)C)c(O)cc3o2)ccc1O [FBL-03B] | 41.9 nM
COc1cc(-c2cc(=O)c3c(O)cc(O)c(CC=C(C)C)c3o2)ccc1O [FBL-03G] | 44 nM
COc1cc(-c2cc(=O)c3c(O)c(C/C=C(\C)CCC=C(C)C)c(O)cc3o2)ccc1O [FBL-03A] | > 20000 nM
COc1ccc(-c2cc(=O)c3c(O)c(C/C=C(\C)CCC=C(C)C)c(O)cc3o2)cc1OC [FBL-03D] | > 30000 nM

same assay, conditions: Table 4; read-out: Acute Myeloid Leukemia Kinases FLT3 IC50

SMILES | IC50
COc1cc(-c2cc(=O)c3c(O)c(OC)c(OC)cc3o2)ccc1O [FBLGS-85] | 50 nM
O=C1CC(c2ccc(O)c(O)c2)Oc2cc(O)cc(O)c21 (stereo not drawn) [FBLGS-82] | 17400 nM
O=c1c(O)c(-c2ccc(O)c(O)c2)oc2cc(O)cc(O)c12 [FBLGS-84] | 822 nM
COc1cc(O)c2c(=O)c(O)c(-c3ccc(O)c(O)c3)oc2c1 [FBLGS-78] | 307 nM
O=c1cc(-c2ccc(O)c(O)c2)oc2cc(O)cc(O)c12 [FBLGS-77] | 1320 nM
COc1cc(O)c2c(=O)c(O)c(-c3ccc(O)c(O)c3)oc2c1 [FBLGS-79] | 25 nM
O=c1c(O)c(-c2ccc(O)c(O)c2)oc2cc(O)ccc12 [FBLGS-83] | 578 nM
COc1cc(O)c2c(=O)c(O)c(-c3ccc(O)c(OC)c3)oc2c1 [FBLGS-80] | 60 nM
COc1cc(-c2cc(=O)c3c(O)c(OC)c(O)cc3o2)ccc1O [FBLGS-86] | 74 nM
Cc1cc2oc(-c3cccc(N)c3)cc(=O)c2c([N+](=O)[O-])c1C [FBLGS-76] | 870 nM
COc1ccc(C2CC(=O)c3c(O)cc(O)cc3O2)cc1O (stereo not drawn) [FBLGS-74] | 16600 nM
O=c1cc(-c2ccccc2)oc2cc(O)cc(O)c12 [FBLGS-75] | 220 nM
COc1cc(-c2oc3cc(O)ccc3c(=O)c2O)ccc1O [FBLGS-81] | 1.9 nM

molecular target: T2, FLT3(ITD) (Homo sapiens, UniProt P36888); assay type: binding; details: Table 1 kinase panel; read-out: IC50 (nM) FLT3(ITD)
T2 construct: In general, full-length constructs were used for small, single domain kinases, and catalytic domain constructs for large multi-domain kinases; fused on or other part: T7 phage fusion or DNA tag for qPCR detection (general statement)
T2 sequence (P36888 1-993): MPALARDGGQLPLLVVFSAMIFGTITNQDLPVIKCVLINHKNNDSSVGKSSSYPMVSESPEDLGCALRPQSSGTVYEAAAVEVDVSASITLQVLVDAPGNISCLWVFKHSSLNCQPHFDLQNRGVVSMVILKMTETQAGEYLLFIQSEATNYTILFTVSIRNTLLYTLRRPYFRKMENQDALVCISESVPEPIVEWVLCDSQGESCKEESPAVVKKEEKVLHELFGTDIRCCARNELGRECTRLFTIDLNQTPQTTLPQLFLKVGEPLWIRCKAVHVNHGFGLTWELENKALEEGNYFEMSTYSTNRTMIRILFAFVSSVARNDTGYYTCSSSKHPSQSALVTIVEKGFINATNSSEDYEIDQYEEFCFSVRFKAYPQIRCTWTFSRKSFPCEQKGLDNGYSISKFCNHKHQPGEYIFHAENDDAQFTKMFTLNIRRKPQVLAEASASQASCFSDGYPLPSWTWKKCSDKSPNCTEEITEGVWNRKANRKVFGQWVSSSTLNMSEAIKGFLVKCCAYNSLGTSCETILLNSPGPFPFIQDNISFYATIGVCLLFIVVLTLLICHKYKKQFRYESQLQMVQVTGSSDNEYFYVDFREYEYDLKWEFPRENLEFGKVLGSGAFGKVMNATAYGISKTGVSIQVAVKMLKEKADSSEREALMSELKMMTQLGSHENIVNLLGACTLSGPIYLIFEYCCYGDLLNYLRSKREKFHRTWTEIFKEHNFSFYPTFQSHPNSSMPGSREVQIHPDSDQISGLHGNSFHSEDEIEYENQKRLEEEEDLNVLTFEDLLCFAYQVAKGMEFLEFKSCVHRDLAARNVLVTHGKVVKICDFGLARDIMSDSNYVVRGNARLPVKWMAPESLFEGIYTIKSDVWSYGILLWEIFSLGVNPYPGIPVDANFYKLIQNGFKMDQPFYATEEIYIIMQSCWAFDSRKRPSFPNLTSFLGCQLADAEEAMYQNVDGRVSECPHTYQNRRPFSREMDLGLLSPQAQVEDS
Experimental: as §1

SMILES | IC50
COc1cc(-c2cc(=O)c3c(O)cc(O)c(C/C=C(\C)CCC=C(C)C)c3o2)ccc1O [FBL-03C] | > 20000 nM
COc1cc(-c2cc(=O)c3c(O)c(CC=C(C)C)c(O)cc3o2)ccc1O [FBL-03B] | 57 nM
COc1cc(-c2cc(=O)c3c(O)cc(O)c(CC=C(C)C)c3o2)ccc1O [FBL-03G] | < 1000 nM
COc1cc(-c2cc(=O)c3c(O)c(C/C=C(\C)CCC=C(C)C)c(O)cc3o2)ccc1O [FBL-03A] | > 20000 nM
COc1ccc(-c2cc(=O)c3c(O)c(C/C=C(\C)CCC=C(C)C)c(O)cc3o2)cc1OC [FBL-03D] | > 30000 nM

same assay, conditions: Table 4; read-out: Acute Myeloid Leukemia Kinases FLT3-ITD IC50

SMILES | IC50
COc1cc(-c2cc(=O)c3c(O)c(OC)c(OC)cc3o2)ccc1O [FBLGS-85] | 57 nM
O=C1CC(c2ccc(O)c(O)c2)Oc2cc(O)cc(O)c21 (stereo not drawn) [FBLGS-82] | 12100 nM
O=c1c(O)c(-c2ccc(O)c(O)c2)oc2cc(O)cc(O)c12 [FBLGS-84] | 453 nM
COc1cc(O)c2c(=O)c(O)c(-c3ccc(O)c(O)c3)oc2c1 [FBLGS-78] | 345 nM
O=c1cc(-c2ccc(O)c(O)c2)oc2cc(O)cc(O)c12 [FBLGS-77] | 799 nM
COc1cc(O)c2c(=O)c(O)c(-c3ccc(O)c(O)c3)oc2c1 [FBLGS-79] | 84 nM
O=c1c(O)c(-c2ccc(O)c(O)c2)oc2cc(O)ccc12 [FBLGS-83] | 180 nM
COc1cc(O)c2c(=O)c(O)c(-c3ccc(O)c(OC)c3)oc2c1 [FBLGS-80] | 84 nM
COc1cc(-c2cc(=O)c3c(O)c(OC)c(O)cc3o2)ccc1O [FBLGS-86] | 45 nM
Cc1cc2oc(-c3cccc(N)c3)cc(=O)c2c([N+](=O)[O-])c1C [FBLGS-76] | 750 nM
COc1ccc(C2CC(=O)c3c(O)cc(O)cc3O2)cc1O (stereo not drawn) [FBLGS-74] | 9090 nM
O=c1cc(-c2ccccc2)oc2cc(O)cc(O)c12 [FBLGS-75] | 91 nM
COc1cc(-c2oc3cc(O)ccc3c(=O)c2O)ccc1O [FBLGS-81] | 3.8 nM
